The values below come from ChEMBL document CHEMBL1649556, “Lack of antimicrobial activity by the antiretroviral drug nevirapine against common bacterial pathogens” (2009).

Values after ≈ are worked out from the molar mass of the structure shown. Active and inactive are the calls of the source. No cut-off for these calls is given here.

Experiment [1] relates to Staphylococcus aureus. As to the kind of experiment: Antibacterial activity against Staphylococcus aureus after 18 to 24 hrs by agar dilution method. Format: functional. (In agar dilution, organisms are placed on agar that contains the substance at set levels.)
Experiment [2] concerns Escherichia coli. As to the kind of experiment: Antibacterial activity against Escherichia coli ATCC 25922 after 18 to 24 hrs by agar dilution method. Format: functional.
In experiment [3] the test system is Escherichia coli. As to the kind of experiment: Antibacterial activity against Escherichia coli after 18 to 24 hrs by agar dilution method. It counts as functional.
Experiment [4] relates to Haemophilus influenzae. The experiment in a line: Antibacterial activity against Haemophilus influenzae after 18 to 24 hrs by agar dilution method. It counts as functional.
For another experiment, the system named is Shigella flexneri. As to the kind of experiment: Antibacterial activity against Shigella flexneri group B after 18 to 24 hrs by agar dilution method. Format: functional.
Experiment [5] deals with Streptococcus pneumoniae. As to the kind of experiment: Antibacterial activity against Streptococcus pneumoniae ATCC 49619 after 18 to 24 hrs by agar dilution method. Format: functional.
The subject of experiment [6] is Streptococcus pneumoniae. As to the kind of experiment: Antibacterial activity against Streptococcus pneumoniae after 18 to 24 hrs by agar dilution method. Format: functional.
Experiment [7] relates to Human immunodeficiency virus. The experiment in a line: Antiviral activity against HIV infected in human PBMC assessed as decrease in viral p24 antigen production at 0.25 to 4 ug/ml after 14 days by ELISA. Format: functional, organism-based. On the technique in general: In an ELISA, binding on a coated surface is turned into a signal by an enzyme label.
Experiment [8] deals with Staphylococcus aureus. As to the kind of experiment: Antibacterial activity against Staphylococcus aureus ATCC 29213 after 18 to 24 hrs by agar dilution method. Format: functional.
For the next experiment, the system named is Salmonella. As to the kind of experiment: Antibacterial activity against Salmonella group D after 18 to 24 hrs by agar dilution method. Format: functional.
Experiment [9] concerns Haemophilus influenzae. The experiment in a line: Antibacterial activity against Haemophilus influenzae […] after 18 to 24 hrs by agar dilution method. It counts as functional.
A further experiment has as its system Shigella sonnei. As to the kind of experiment: Antibacterial activity against Shigella sonnei […] after 18 to 24 hrs by agar dilution method. Format: functional.
A short description of experiment [10]: Antibacterial activity against Salmonella group B ATCC 31194 after 18 to 24 hrs by agar dilution method. To be noted: Salmonella sp. 'group B'. Format: functional.

`Cc1ccnc2c1NC(=O)c1cccnc1N2C1CC1` [NEVIRAPINE]: the MIC against Staphylococcus aureus [1], against Escherichia coli [2], in the experiment with Escherichia coli [3], against Haemophilus influenzae [4], in the experiment with Shigella flexneri and with Streptococcus pneumoniae [5] was 4 µg/mL (≈ 15 µM) in each case. Besides, the MIC (with Streptococcus pneumoniae [6]; with Staphylococcus aureus [8]; in the experiment on Salmonella; against Haemophilus influenzae [9]; against Shigella sonnei; in [10]) was 4 µg/mL (≈ 15 µM) in each case. Besides, in experiment [7], the inhibition entry is “Active”.
